US11648381B2, “Thermally controlled residence devices” (Massachusetts Institute of Technology, priority 2018, dated 2023)

What was measured:
[1] = drug stability at elevated temperature; format: physicochemical; details: 120° C., may be reached during manufacturing of the dosage form
Method: Additionally, drug stability was evaluated for an elevated temperature of 120° C. which may be reached during the manufacturing of the dosage form.

[2] = in vitro drug release from drug-polymer matrices in simulated gastric fluid; format: physicochemical; details: addition of water soluble polymers such as PEG 3350 and Kolliphor P 407 to the polymer matrix; SGF with 5% (w/v) Tween 20
Method: To perform the release study, drug-polymer matrices ( 1 cm in length) were incubated with 50 ml of the respective release medium in a 37° C. incubator shaker at 50 rpm. At various times, 1 ml of the release medium was collected and stored at -20° C. until further analysis. The remaining medium was discarded, and the arms were incubated with fresh medium. For measuring drug concentrations in the release medium, all specimens (beam-like arms) were thawed, centrifuged at 1500 g for 10 min, and analyzed using high-performance liquid chromatography (HPLC). Depending on the drug used, the links had excipients and elasticizers added to enhance the drug release and mechanical properties, respectively. For both moxifloxacin ([…], Inc) and carbamazepine (Ark Pharm, Inc), poly(ethylene glycol) (PEG) (molecular weight-3350 Da, Spectrum Corp.), Kolliphor® P 407 (BASF), and EUDRAGIT® E PO (Evonik) were used as excipients. For carbamazepine, CarbothaneTM TPU P[…] was used as an elasticizer. For X-ray visualization, 15% weight ratio of BaSO4 was added. Various polymeric formulations were investigated for controlled release of the drugs. The in vitro drug release was also investigated by changing drug loading and the composition of excipients, as well as application of polymeric coating (using a solution of 5.4% PCL (w/v) and 0.6% EUDRAGIT® E PO (w/v) in acetone). […]

[3] = drug stability in simulated gastric fluid; format: physicochemical; details: SGF pH 1.2, 37° C., 24 hour duration; HPLC-UV
Method: Given that the tested residence device is designed to reside in the stomach for an extended period, the drug stability was analyzed in simulated gastric fluid (0.2% w/v sodium chloride, and 0.7% w/v hydrochloric acid, adjusted to pH-1.2; referred to as SGF). Moxifloxacin was dissolved in SGF and placed at 37° C. At various times, part of the solution was aliquoted and stored at about −20° C. until further analysis. For carbamazepine, the drug was first dissolved in methanol and then diluted in SGF (at least 100-fold). At various times, part of the solution was collected and stored at −20° C. On completion of the study, drug concentration in the various aliquots was measured using high performance liquid chromatography-ultraviolet (HPLC-UV) analysis (High Performance Liquid Chromatography).

[4] = solubility in simulated gastric fluid; format: physicochemical
[5] = in vivo prolonged drug delivery, blood concentration versus time; design: species or system Yorkshire pigs; details: pigs
Method: To evaluate the ability of residence devices loaded with the selected carbamazepine formulation to achieve gastric retention, the above described residence device was administered to a large animal model (three 35 to 50 kg Yorkshire pigs for each drug). Following overnight fasting and sedation of the animals, an overtube (US Endoscopy), with endoscopic guidance, was placed into the stomach to facilitate direct gastric delivery of the residence device. A residence devices folded into a cylindrical shape of length 20 cm and diameter of 12 mm (see the folded configuration in FIG. 1A) was administered via the overtube into the stomach of each pig, and the overtube was then removed. […] Serial radiographs were performed immediately afterwards and every 48-72 hours to monitor the integrity and transit of the devices as well as any radiographic evidence of bowel obstruction. In addition, animals were monitored clinically at least twice a day for any evidence of morbidity, including lethargy, inappetence, decreased fecal output, abdominal distension and vomiting. […] Endoscopic evaluation of the stomach over the course of the study was performed to further explore the stomach and ensure the absence of any ulceration or injury. Blood samples were taken at the following time points, 0 min (before administration of the dosage form), 5 min, 15 min, 30 min, 2 hours, 6 hours, daily for a minimum of 5 days, and then three times for the second week from peripheral veins under sedation.
One hundred microliters of each blood sample was spiked with 200 μl of 250 ng/mL internal standard (imipramine for carbamazepine) with acetonitrile added to elicit protein precipitation. Samples were vortexed, sonicated, and centrifuged prior to being pipetted into a well plate containing 200 μl of nanopure water. Finally, the samples were injected into an Ultra Performance Liquid Chromatography tandem mass spectrometry (UPLC-MS/MS) for analysis.

drug degradation at elevated temperature [1] | increase in release of carbamazepine [2] | stability in SGF [3] | solubility in simulated gastric fluid (SGF) [4] | area under the curve as compared to immediate release formulations ([5]; residence device) | maximum concentration as compared to immediate release formulations ([5]; residence device) | duration of drug delivery after a single administration ([5]; residence device, direct gastric delivery) | SMILES | carbamazepine concentration versus time profile ([5]; 14 day residence time, UPLC-MS/MS)
no appreciable drug degradation | greater than 3 fold | stable | limited solubility | enhanced area under the curve | lower maximum concentration | up to 14 days | NC(=O)N1c2ccccc2C=Cc2ccccc21 [carbamazepine] | initial spike in concentration was observed in the first day followed by relatively uniform concentrations
no appreciable drug degradation |  | stable |  |  |  |  | COc1c(N2C[C@@H]3CCCN[C@@H]3C2)c(F)cc2c(=O)c(C(=O)O)cn(C3CC3)c12 [moxifloxacin] | 
